Test [1] concerns hyperlipidemia mice. In words: Example 15 hypolipidemic effect of peony/Codonopsis extract ratios in yolk emulsion hyperlipidemia mice. The class given is in vivo. As to conditions: hyperlipidemia ICR mice. How it is done:
Group H1 and B1 were mixed in different ratios (see Table 8) and formulated into different test medicines. Recommended dose (animal): H1+B1=200 mg/kg body weight, ig dose is 0.2 ml/10 g body weight. [table] 100 SPF ICR mice were employed with the body weight 20±2 g, half are male and the other half are female. Provided by Zhejiang Province Experimental Animal Center, Licence: SCXK(ZHE)2003-0001 90 ml yolk and 30 ml physiological Saline were mixed thoroughly in electric mixer to form emulsion, which was stored at 4° C. for further use. […]: test medicine 1-23 groups, postive control group (Zocor), model control group and normal control group, 10 mice for each group, half male and half female. […] The content of total cholesterol (TC), triglyceride (TG) and high density lipoprotein (HDL-C) of the serum were measured. T test was employed to analyze the significant difference between the groups. The result is shown in X±SD.

The subject of test [2] is hyperlipidemia mice. Briefly: Example 16 dose screening of H1+B1 (4:1) in yolk emulsion hyperlipidemia mice. As to conditions: dose 20 mg/kg ig once daily 7 days; X±SD, 10 animals. It is filed as in vivo, ICR mice. The method, then: H1 is peony extract obtained from Example 1. B1 is Codonopsis extract obtained from Example 7. The test medicines are mixtures of H1 and B1 with the ratio of 4:1 (the weight ratio of peony extract and Codonopsis extract is 2.7:1).
80 SPF ICR mice were employed with the body weight 20±2 g, half are male and the other half are female. Provided by Zhejiang Province Experimental Animal Center, Licence: SCXK(ZHE)2003-0001
(§1) 90 ml yolk and 30 ml physiological Saline were mixed thoroughly in electric mixer to form emulsion, which was stored at 4° C. for further use.
(§2) 80 ICR mice were randomly divided into 8 groups: test medicine 1, test medicine 2, test medicine 3, test medicine 4, test medicine 5, postive control group (Zocor), model control group and normal control group, 10 mice for each group, half male and half female. Once daily for a continuous 7-day period, the model control group and normal control group were provided with same volume of distilled water, while the other groups were administered with medicines by gastric perfusion. 2 hours after the last gastric perfusion, except for the normal control group, fresh yolk emulsion was intraperitoneally injected to the rest 7 groups of mice, 0.5 ml for a single animal. After 20 hours, eye ball was plucked and blood was collected, make sure 12 hours fasting before the collection. The content of total cholesterol (TC), triglyceride (TG) and high density lipoprotein (HDL-C) of the serum were measured.
T test was employed to analyze the significant difference between the groups. The result is shown in X±SD.

Test [3] has as its system hyperlipidemia mice. Briefly: Example 14 lipid lowering screening test in yolk emulsion hyperlipidemia mice. It is filed as in vivo. As to conditions: hyperlipidemia ICR mice; ig once daily 7 days; dose 20 mg/kg; X±SD, 10 animals. How it is done:
As described before, the test medicine is the mixture of H series and B series in the ratio H:B (3:1). Recommended dose (for animal) is: […] the recommended does is 200 mg/kg. • Test medicine 1: H1+B1, ig 0.2 ml/10 g; • Test medicine 2: H2+B1, ig 0.2 ml/10 g; • Test medicine 3: H3+B1, ig 0.2 ml/10 g; • Test medicine 4: H4+B1, ig 0.2 ml/10 g; • Test medicine 5: H5+B1, ig 0.2 ml/10 g; • Test medicine 6: H1+B2, ig 0.2 ml/10 g; • Test medicine 7: H2+B2, ig 0.2 ml/10 g; • Test medicine 8: H3+B2, ig 0.2 ml/10 g; • Test medicine 9: H4+B2, ig 0.2 ml/10 g; • Test medicine 10: H5+B2, ig 0.2 ml/10 g; • Test medicine 11: HB ig 0.2 ml/10 g.
130 SPF ICR mice were employed with the body weight 20±2 g, half are male and the other half are female. Provided by Zhejiang Province Experimental Animal Center, Licence: SCXK(ZHE)2003-0001
as §1
as §2, with “140 ICR” for “80 ICR”, “into 14” for “into 8”, “5, test medicine 6, test medicine 7, test medicine 8, test medicine 9, test medicine 10, test medicine 11,” for “5,”, “a continous” for “a continuous”, “except of” for “except for”, “rest 13” for “rest 7”
EXCEL was employed to analyze the significant difference between the groups. The result is shown in X±SD.

Where [4] appears, read: ig once daily 7 days, dose 20 mg/kg, X±SD, 10 animals.
Where [5] appears, read: test medicines 200 mg/kg, positive control 20 mg/kg, ig 7 days.

Consider `CCC(C)(C)C(=O)O[C@H]1C[C@@H](C)C=C2C=C[C@H](C)[C@H](CC[C@@H]3C[C@@H](O)CC(=O)O3)[C@H]21` [positive control group], for which, in the test on hyperlipidemia mice [1] (setting [4]), the “HDL-C (serum high density lipoproteincholesterol content)” value is listed as 1.59 ± 0.13 mmol/L, the HDL-C/TC worked out at 0.22 ± 0.08, the “TC (total serum cholesterol content)” value came out at 8.03 ± 3.12 mmol/L and the “TG (serum triglyceride content)” value is 8.57 ± 4.20 mmol/L. Besides, in the test with hyperlipidemia mice [1] (setting [5]), the “TC compared with model control group” value is “lower TC, with significant difference (P<0.05)” and the “TG compared with model control group” value is “lower TG, with significant difference (P<0.05)”. Also, in the test on hyperlipidemia mice [2], the “HDL-C (serum high density lipoproteincholesterol content)” value is 1.35 ± 0.15 mmol/L, the HDL-C/TC is recorded as 0.26 ± 0.06, the “TC (total serum cholesterol content)” value is 5.97 ± 2.40 mmol/L and the “TG (serum triglyceride content)” value stood at 4.31 ± 3.28 mmol/L. Further, in the test on hyperlipidemia mice [3], the “HDL-C (serum high density lipoproteincholesterol content)” value is given as 1.39 ± 0.23 mmol/L, the HDL-C/TC is reported as 0.18 ± 0.05, the “TC (total serum cholesterol content)” value was determined as 8.58 ± 4.18 mmol/L and the “TG (serum triglyceride content)” value worked out at 7.78 ± 5.36 mmol/L.

(Values after patent US8628806B2, “Hypolipidemic composition and its use” (Hangzhou Minsheng Pharmaceutical Co., Ltd., priority 2006, dated 2014).)
